# Laboratory results from US11001590B2, “Pyrazolopyrimidine derivatives” (BAYER ANIMAL HEALTH GMBH, priority 2016, dated 2021).
# Legend:
# [1] = tested on: Nippostrongylus brasiliensis; assay: In vitro assay 2: Nippostrongylus brasiliensis (NIPOBR), acetylcholine esterase readout; settings: adult worms, 10 μg/ml (10 ppm), read-out: activity (reduction of AChE compared to negative control)
# Method: In Vitro Assay 2: Nippostronqylus Brasiliensis (NIPOBR)
# Adult Nippostrongylus brasiliensis were washed with saline buffer containing 100 U/ml penicillin, 0.1 mg/ml streptomycin and 2.5 μg/ml amphotericin B. Test compounds were dissolved in DMSO and worms were incubated in medium in a final concentration of 10 μg/ml (10 ppm) respectively 1 μg/ml (1 ppm). An aliquot of the medium was used to determine the acetylcholine esterase activity in comparison to a negative control. The principle of measuring acetylcholine esterase as readout for anthelmintic activity was described in Rapson et al (1986) and Rapson et al (1987).
# [2] = tested on: Dirofilaria immitis microfilariae; assay: In vitro assay 3: Dirofilaria immitis microfilariae (DIROIM L1), motility; settings: 72 h, reduction of motility vs negative control, 72 h incubation
# [3] = log P by HPLC on reversed phase columns (Method L0; [a] acidic, [b] neutral range)
# Method: Calibration was done with straight-chain alkan-2-ones (with 3 to 16 carbon atoms) with known log P values (measurement of log P values using retention times with linear interpolation between successive alkanones). Lambda-max-values were determined using UV-spectra from 200 nm to 400 nm and the peak values of the chromatographic signals.
# [4] = target: C. elegans Slo-1a (Caenorhabditis elegans, UniProt Q95V25); assay: In vitro assay 1: C. elegans Slo-1a, action at a recombinant C. elegans CHO cell line (membrane potential measurement)
# [5] = tested on: Dirofilaria immitis third-stage larvae; assay: In vitro assay 4: Dirofilaria immitis (DIROIM L4), motility of larvae; settings: 72 h
# [6] = tested on: Litomosoides sigmodontis third-stage larvae; assay: In vitro assay 7: Litomosoides sigmodontis L3 (LTMOSI), motility; settings: 72 h, reduction of motility vs negative control, 72 h incubation
# Method: In Vitro Assay 7: Litomosoides Siqmodontis L3 (LTMOSI)
# 10 Litomosoides sigmodontis third-stage larvae, which were freshly isolated from the pleural cavity of an infected rodent, were added to wells of a microtitre plate containing a nutrient medium and the test compound in DMSO. Compounds were tested in concentration-response assay in duplicate. Larvae exposed to DMSO and no test compounds were used as negative controls. Larvae were evaluated after 72 h of incubation with the compound. Efficacy was determined as the reduction of motility in comparison to the negative control. Based on the evaluation of a wide concentration range, concentration-response curves as well as ECso-values were calculated.
# Sequence of C. elegans Slo-1a (Q95V25 whole entry): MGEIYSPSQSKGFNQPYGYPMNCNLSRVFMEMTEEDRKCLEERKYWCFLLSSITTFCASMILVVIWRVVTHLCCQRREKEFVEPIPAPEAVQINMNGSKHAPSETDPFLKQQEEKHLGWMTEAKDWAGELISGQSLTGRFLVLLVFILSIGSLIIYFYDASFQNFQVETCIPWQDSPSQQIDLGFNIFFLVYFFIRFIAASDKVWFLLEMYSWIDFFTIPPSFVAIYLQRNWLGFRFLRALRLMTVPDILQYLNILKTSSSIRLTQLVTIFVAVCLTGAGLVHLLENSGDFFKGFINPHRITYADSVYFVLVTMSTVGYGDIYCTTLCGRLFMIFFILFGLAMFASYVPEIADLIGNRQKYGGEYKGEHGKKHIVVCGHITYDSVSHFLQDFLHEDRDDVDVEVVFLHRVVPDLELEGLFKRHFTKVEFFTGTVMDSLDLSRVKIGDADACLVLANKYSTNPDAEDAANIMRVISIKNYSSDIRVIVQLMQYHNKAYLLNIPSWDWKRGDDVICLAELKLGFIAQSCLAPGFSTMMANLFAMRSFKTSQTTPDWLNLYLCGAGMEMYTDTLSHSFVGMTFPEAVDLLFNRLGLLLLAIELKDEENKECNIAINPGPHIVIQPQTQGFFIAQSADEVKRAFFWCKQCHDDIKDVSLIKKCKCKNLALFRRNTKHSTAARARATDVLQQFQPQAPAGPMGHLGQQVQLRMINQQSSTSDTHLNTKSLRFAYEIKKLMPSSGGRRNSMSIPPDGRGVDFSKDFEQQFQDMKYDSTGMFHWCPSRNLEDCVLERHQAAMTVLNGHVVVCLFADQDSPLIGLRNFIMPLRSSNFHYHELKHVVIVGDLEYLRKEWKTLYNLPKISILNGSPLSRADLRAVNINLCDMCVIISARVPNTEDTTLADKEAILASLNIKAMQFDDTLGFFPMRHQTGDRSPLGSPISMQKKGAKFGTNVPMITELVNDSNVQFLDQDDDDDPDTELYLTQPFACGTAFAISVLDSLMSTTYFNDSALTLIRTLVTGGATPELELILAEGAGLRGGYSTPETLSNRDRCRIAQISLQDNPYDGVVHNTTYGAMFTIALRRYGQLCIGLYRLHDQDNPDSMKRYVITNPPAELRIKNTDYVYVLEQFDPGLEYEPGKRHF
structure (smiles),measurement,setting,value
Cc1nn2c(C(C)C)c(C(=O)N[C@H]3CCOc4ccccc43)cnc2c1-c1cccc(OC(C)C)c1F [Example 188],inhibition at 10 µg/mL,[1],> 80%
same,EC50,[2],< 1 µg/mL
same,chromatographic logP,[3],4.79
same,EC50,[4],12.6 nM
Cc1ccccc1-c1c(C)nn2c(C(C)C)c(C(=O)N[C@H]3CCOc4ccccc43)cnc12 [Example 193],EC50,[2],< 0.1 µg/mL
same,EC50,[5],< 0.1 µg/mL
same,EC50,[6],< 0.1 µg/mL
same,chromatographic logP,[3],4.44
same,EC50,[4],0.794 nM
Cc1nn2c(C(C)C)c(C(=O)N[C@H]3CCOc4ccccc43)cnc2c1-c1ccc(Br)cc1 [Example 206],inhibition at 10 µg/mL,[1],> 80%
same,EC50,[2],< 1 µg/mL
same,chromatographic logP,[3],5.02
same,EC50,[4],12.6 nM
CC(C)c1c(C(=O)N[C@H]2CCOc3ccccc32)cnc2c(-c3cc(Cl)cc(Cl)c3)c(S(C)(=O)=O)nn12 [Example 219],inhibition at 10 µg/mL,[1],> 80%
same,EC50,[2],< 1 µg/mL
same,chromatographic logP,[3],4.16
same,EC50,[4],20 nM
CCC(C)c1c(C(=O)N[C@H]2CCOc3ccccc32)cnc2c(-c3c(F)cccc3Cl)c(C)nn12 (some centres unmarked) [Example 226],EC50,[2],< 0.1 µg/mL
same,EC50,[5],< 0.1 µg/mL
same,EC50,[6],< 0.1 µg/mL
same,chromatographic logP,[3],4.72
same,EC50,[4],20 nM
COc1ccc(-c2c(C)nn3c(C(C)C)c(C(=O)N[C@H]4CCOc5ccccc54)cnc23)cc1OC [Example 242],inhibition at 10 µg/mL,[1],> 80%
same,EC50,[2],< 10 µg/mL
same,chromatographic logP,[3],3.9
same,EC50,[4],79.4 nM
Cc1nn2c(C(C)C)c(C(=O)N[C@H]3CCOc4ccccc43)cnc2c1-c1cccc2c1OC(F)(F)O2 [Example 257],inhibition at 10 µg/mL,[1],> 80%
same,EC50,[2],< 0.1 µg/mL
same,chromatographic logP,[3],4.87
same,EC50,[4],6.31 nM
Cc1nn2c(C(C)C)c(C(=O)N[C@H]3CCCc4ccccc43)cnc2c1-c1cc(Cl)cc(Cl)c1F [Example 265],inhibition at 10 µg/mL,[1],> 80%
same,EC50,[2],< 1 µg/mL
same,chromatographic logP,[3],6.01
same,EC50,[4],2.51 nM
Cc1nn2c(C(C)C)c(C(=O)N[C@H]3CCc4ccccc43)cnc2c1-c1ccc(F)c(C(F)(F)F)c1 [Example 294],inhibition at 10 µg/mL,[1],> 80%
same,EC50,[2],< 10 µg/mL
same,chromatographic logP,[3],5.36
same,EC50,[4],50.1 nM
COCc1cccc(-c2c(C)nn3c(C(C)C)c(C(=O)N[C@H]4CCc5ccccc54)cnc23)c1 [Example 300],EC50,[2],< 1 µg/mL
same,EC50,[5],< 0.1 µg/mL
same,EC50,[6],< 0.1 µg/mL
same,chromatographic logP,[3],4.43
same,EC50,[4],6.31 nM
Cc1nn2c(C(C)C)c(C(=O)N[C@H]3CCc4ccccc43)cnc2c1-c1ccc(F)cc1 [Example 302],EC50,[2],< 0.1 µg/mL
same,EC50,[5],< 0.1 µg/mL
same,EC50,[6],< 0.1 µg/mL
same,chromatographic logP,[3],4.63
same,EC50,[4],12.6 nM
Cc1nn2c(C(C)C)c(C(=O)N[C@H]3CCc4ccccc43)cnc2c1-c1cc(F)cc(F)c1 [Example 323],EC50,[2],< 0.1 µg/mL
same,EC50,[5],< 1 µg/mL
same,EC50,[6],< 0.1 µg/mL
same,chromatographic logP,[3],5.02
same,EC50,[4],39.8 nM
Cc1nn2c(C(C)C)c(C(=O)N[C@H]3CCc4ccccc43)cnc2c1-c1cc(F)cc(Cl)c1 [Example 324],EC50,[2],< 0.1 µg/mL
same,EC50,[5],< 0.1 µg/mL
same,EC50,[6],< 0.1 µg/mL
same,chromatographic logP,[3],5.49
same,EC50,[4],31.6 nM
COc1cc(F)cc(-c2c(C)nn3c(C(C)C)c(C(=O)N[C@H]4CCc5ccccc54)cnc23)c1 [Example 325],EC50,[2],< 0.1 µg/mL
same,EC50,[5],< 0.1 µg/mL
same,EC50,[6],< 0.1 µg/mL
same,chromatographic logP,[3],4.8
same,EC50,[4],20 nM
Cc1nn2c(C(C)C)c(C(=O)N[C@H]3CCc4ccccc43)cnc2c1-c1cccc(OC(F)F)c1 [Example 337],EC50,[2],< 0.1 µg/mL
same,EC50,[5],< 1 µg/mL
same,EC50,[6],< 0.1 µg/mL
same,chromatographic logP,[3],4.7
same,EC50,[4],12.6 nM
Cc1nn2c(C3CC3)c(C(=O)N[C@H]3CCc4ccccc43)cnc2c1-c1ccccc1Cl [Example 349],EC50,[2],< 0.1 µg/mL
same,EC50,[5],< 0.1 µg/mL
same,EC50,[6],< 0.1 µg/mL
same,chromatographic logP,[3],3.88
same,EC50,[4],2.51 nM
COc1cccc(-c2c(C)nn3c(C4CC4)c(C(=O)N[C@H]4CCc5ccccc54)cnc23)c1 [Example 351],EC50,[2],< 0.1 µg/mL
same,EC50,[5],< 0.1 µg/mL
same,EC50,[6],< 0.1 µg/mL
same,chromatographic logP,[3],3.74
same,EC50,[4],3.98 nM
Cc1nn2c(C3CC3)c(C(=O)N[C@H]3CCc4ccccc43)cnc2c1-c1cccc(Cl)c1 [Example 352],EC50,[2],< 0.1 µg/mL
same,EC50,[5],< 0.1 µg/mL
same,EC50,[6],< 0.1 µg/mL
same,chromatographic logP,[3],4.38
same,EC50,[4],6.31 nM
Cc1nn2c(C3CC3)c(C(=O)N[C@H]3CCc4ccccc43)cnc2c1-c1cccc(F)c1 [Example 353],EC50,[2],< 0.1 µg/mL
same,EC50,[5],< 1 µg/mL
same,EC50,[6],< 0.1 µg/mL
same,chromatographic logP,[3],3.95
same,EC50,[4],7.94 nM
Cc1nn2c(C3CC3)c(C(=O)N[C@H]3CCc4ccccc43)cnc2c1-c1ccccc1F [Example 357],EC50,[2],< 0.1 µg/mL
same,EC50,[5],< 0.1 µg/mL
same,EC50,[6],< 0.1 µg/mL
same,chromatographic logP,[3],3.67
same,EC50,[4],6.31 nM
CCn1cc(-c2c(C)nn3c(C(C)C)c(C(=O)N[C@H]4CCc5ccccc54)cnc23)cn1 [Example 374],inhibition at 10 µg/mL,[1],> 80%
same,EC50,[2],< 10 µg/mL
same,chromatographic logP,[3],3.44
same,EC50,[4],50.1 nM
Cc1nn2c(C(C)C)c(C(=O)N[C@H]3CCc4ccccc43)cnc2c1-c1cnn(CC2CC2)c1 [Example 376],inhibition at 10 µg/mL,[1],> 80%
same,EC50,[2],< 10 µg/mL
same,chromatographic logP,[3],3.83
same,EC50,[4],7.94 nM
Cc1nn2c(C(C)C)c(C(=O)N[C@H]3CCc4ccccc43)cnc2c1-c1cnn(CC(F)F)c1 [Example 377],inhibition at 10 µg/mL,[1],> 80%
same,EC50,[2],< 10 µg/mL
same,chromatographic logP,[3],3.49
same,EC50,[4],15.8 nM
COCc1cccc(-c2c(C)nn3c(C(C)C)c(C(=O)N[C@H]4CCOc5ccccc54)cnc23)c1 [Example 392],inhibition at 10 µg/mL,[1],> 80%
same,EC50,[2],< 0.1 µg/mL
same,chromatographic logP,[3],4.16
same,EC50,[4],10 nM
COc1cccc(-c2c(C)nn3c(C(C)C)c(C(=O)N[C@H]4CCOc5ccccc54)cnc23)c1 [Example 395],EC50,[2],< 0.1 µg/mL
same,EC50,[5],< 0.1 µg/mL
same,EC50,[6],< 0.1 µg/mL
same,chromatographic logP,[3],4.24
same,EC50,[4],7.94 nM
Cc1nn2c(C(C)C)c(C(=O)N[C@H]3CCOc4ccccc43)cnc2c1-c1cccc(F)c1 [Example 396],EC50,[2],< 0.1 µg/mL
same,EC50,[5],< 0.1 µg/mL
same,EC50,[6],< 0.1 µg/mL
same,chromatographic logP,[3],4.45
same,EC50,[4],15.8 nM
Cc1nn2c(C(C)C)c(C(=O)N[C@H]3CCOc4ccccc43)cnc2c1-c1cncc(Cl)c1 [Example 402],EC50,[2],< 0.1 µg/mL
same,EC50,[5],< 0.1 µg/mL
same,EC50,[6],< 0.1 µg/mL
same,chromatographic logP,[3],3.91
same,EC50,[4],20 nM
Cc1nn2c(C3CC3)c(C(=O)N[C@H]3CCc4ccccc43)cnc2c1-c1c(F)cccc1F [Example 405],EC50,[2],< 0.1 µg/mL
same,EC50,[5],< 0.1 µg/mL
same,EC50,[6],< 0.1 µg/mL
same,chromatographic logP,[3],3.66
same,EC50,[4],3.16 nM
Cc1nn2c(C3CC3)c(C(=O)N[C@H]3CCc4ccccc43)cnc2c1-c1cc(F)ccc1F [Example 422],EC50,[2],< 0.1 µg/mL
same,EC50,[5],< 0.1 µg/mL
same,EC50,[6],< 0.1 µg/mL
same,chromatographic logP,[3],3.84
same,EC50,[4],3.98 nM
Cc1nn2c(C3CC3)c(C(=O)N[C@H]3CCc4ccccc43)cnc2c1-c1cccc(F)c1F [Example 424],EC50,[2],< 0.1 µg/mL
same,EC50,[5],< 0.1 µg/mL
same,EC50,[6],< 0.1 µg/mL
same,chromatographic logP,[3],3.84
same,EC50,[4],2.51 nM
Cc1nn2c(C3CC3)c(C(=O)N[C@H]3CCc4ccccc43)cnc2c1-c1c(F)ccc(F)c1F [Example 437],EC50,[2],< 0.1 µg/mL
same,EC50,[5],< 0.1 µg/mL
same,EC50,[6],< 0.1 µg/mL
same,chromatographic logP,[3],3.83
same,EC50,[4],1.58 nM
Cc1nn2c(C3CC3)c(C(=O)N[C@H]3CCc4ccccc43)cnc2c1-c1c(F)cc(F)cc1F [Example 438],EC50,[2],< 0.1 µg/mL
same,EC50,[5],< 0.1 µg/mL
same,EC50,[6],< 0.1 µg/mL
same,chromatographic logP,[3],3.87
same,EC50,[4],1.26 nM
Cc1nn2c(C3CC3)c(C(=O)N[C@H]3CCOc4ccccc43)cnc2c1-c1ccccc1Cl [Example 452],EC50,[2],< 0.1 µg/mL
same,EC50,[5],< 0.1 µg/mL
same,EC50,[6],< 0.1 µg/mL
same,chromatographic logP,[3],3.64
same,EC50,[4],2.51 nM
Cc1nn2c(C3CC3)c(C(=O)N[C@H]3CCOc4ccccc43)cnc2c1-c1cccc(F)c1F [Example 457],EC50,[2],< 0.1 µg/mL
same,EC50,[5],< 0.1 µg/mL
same,EC50,[6],< 0.1 µg/mL
same,chromatographic logP,[3],3.61
same,EC50,[4],1.26 nM
Cc1nn2c(C3CC3)c(C(=O)N[C@H]3CCOc4ccccc43)cnc2c1-c1c(F)cccc1Cl [Example 458],EC50,[2],< 0.1 µg/mL
same,EC50,[5],< 0.1 µg/mL
same,EC50,[6],< 0.1 µg/mL
same,chromatographic logP,[3],3.65
same,EC50,[4],1.58 nM
Cc1nn2c(C3CC3)c(C(=O)N[C@H]3CCOc4ccccc43)cnc2c1-c1cc(Cl)cc(C(F)(F)F)c1 [Example 465],EC50,[2],< 0.1 µg/mL
same,EC50,[5],< 0.1 µg/mL
same,EC50,[6],< 0.1 µg/mL
same,chromatographic logP,[3],5.11
same,EC50,[4],10 nM
Cc1nn2c(N3CCOCC3)c(C(=O)N[C@H]3CCOc4ccccc43)cnc2c1-c1cccc(F)c1F [Example 534],EC50,[2],< 0.1 µg/mL
same,EC50,[5],< 0.1 µg/mL
same,EC50,[6],< 0.1 µg/mL
same,chromatographic logP,[3],4.32
same,EC50,[4],3.16 nM
Cc1nn2c(N3CCOCC3)c(C(=O)N[C@H]3CCOc4ccccc43)cnc2c1-c1c(F)ccc(F)c1F [Example 535],EC50,[2],< 0.1 µg/mL
same,EC50,[5],< 0.1 µg/mL
same,EC50,[6],< 0.1 µg/mL
same,chromatographic logP,[3],3.29
same,EC50,[4],2.51 nM
